Data from PMC10066365, “Nemacol is a small molecule inhibitor of C. elegans vesicular acetylcholine transporter with anthelmintic potential” (Nature Communications, 2023).
Where “and” joins values, the source holds several entries; their conditions need not be identical. Identical values can stand only once.

Key:
[1] = test system: Dirofilaria immitis L3/L4; test: Dirofilaria immitis L3/L4 motility assay (DiroImager, 72 h); settings: Dirofilaria immitis L4
Pristionchus pacificus = Pristionchus pacificus motor disruption dose-response on solid media, 1 h; settings: for EC50: Pristionchus pacificus, 1 h, read-out: P. pacificus motor disruption EC50; for mean % any phene: any phenotype (coiled, jerky-Unc or paralyzed) at one hour; for mean % any phene / mean % any phene (coiled, jerky-Unc or paralyzed): mean of three biological replicates; for rep 1 atypical locomotion / rep 1 coiled / rep 1 no phene / rep 1 paralyzed / rep 2 atypical locomotion / rep 2 coiled / rep 2 no phene / rep 2 paralyzed / rep 3 atypical locomotion / rep 3 coiled / rep 3 no phene / rep 3 paralyzed: count of 20 animals per trial, one hour; for mean % any phene (coiled, jerky-Unc or paralyzed): Pristionchus pacificus young adults
Method: Locomotor phenotype analyses were done in 24-well plates with 1 mL of MYOB substrate (27.5 g Trizma HCl, 12 g Trizma Base, 230 g bacto tryptone, 10 g NaCl, 0.4 g cholesterol (95%)) seeded with 25 µL of OP50 Escherichia coli on each well. Each compound was added to the MYOB substrate before pouring to achieve the desired final concentrations of 30 µM or 60 µM after diffusion through the media. Synchronized young adult worms are transferred into each well using a platinum wire pick. A Leica MZ75 stereomicroscope was used to visualize the movement of worms on the solid substrate. The specific dominant locomotor phenotype (i.e. ‘Punc’, ‘paralyzed’, ‘coiler’ or ‘wild-type locomotion’) was scored after the touch on the head with a platinum wire over a ~3–5 s of observation. […] Coiled animals were not scored as paralyzed despite sometimes not responding to light touch.

C. elegans = C. elegans motor phenotype scoring on solid media (Punc/jerky-unc, coiled, paralyzed), wild-type young adults; format: in vivo, Caenorhabditis elegans; settings: for atypical locomotion (number of animals) / coiled (number of animals) / no phene (number of animals) / paralyzed (number of animals) / any phene: mean % fraction of young adults exhibiting any phenotype (coiled, jerky-Unc or paralyzed): one hour; for atypical locomotion (number of animals) / coiled (number of animals) / no phene (number of animals) / paralyzed (number of animals): young adults, 20 animals per trial, single technical replicate; for any phene: mean % fraction of young adults exhibiting any phenotype (coiled, jerky-Unc or paralyzed): mean of three biological replicates; for EC50: Caenorhabditis elegans, any motor phenotype after 1 h on solid media, ± 95% CI, read-out: C. elegans - motor disruption EC50
[2] = test system: Dirofilaria immitis microfilariae; test: Dirofilaria immitis microfilariae immobility assay (DiroImager, 72 h); settings: Dirofilaria immitis microfilariae
Procedure, shortened: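 About 250 freshly purified microfilariae of the Missouri isolate per well in supplemented RPMI 1640, exposed to compound for 72 h. Motility scored by automated whole-plate optical imaging; medium with 1% DMSO as negative control.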

c1ccc(N2CCN(C3CCCCCCC3)CC2)cc1 [Nemacol-54]
% effect (motility), DIROIM L4 ([1]; 10 µM): 0%
% effect (motility), DIROIM L4 ([1]; 50 µM): 25%
EC50 (Pristionchus pacificus): 52.4 µM
mean % any phene (Pristionchus pacificus; conc 3.75): 0%
rep 1 atypical locomotion (Pristionchus pacificus; conc 3.75): 0
rep 1 coiled (Pristionchus pacificus; conc 3.75): 0
rep 1 no phene (Pristionchus pacificus; conc 3.75): 20
rep 1 paralyzed (Pristionchus pacificus; conc 3.75): 0
rep 2 atypical locomotion (Pristionchus pacificus; conc 3.75): 0
rep 2 coiled (Pristionchus pacificus; conc 3.75): 0
rep 2 no phene (Pristionchus pacificus; conc 3.75): 20
rep 2 paralyzed (Pristionchus pacificus; conc 3.75): 0
rep 3 atypical locomotion (Pristionchus pacificus; conc 3.75): 0
rep 3 coiled (Pristionchus pacificus; conc 3.75): 0
rep 3 no phene (Pristionchus pacificus; conc 3.75): 20
rep 3 paralyzed (Pristionchus pacificus; conc 3.75): 0
mean % any phene (Pristionchus pacificus; conc 15): 0%
rep 1 atypical locomotion (Pristionchus pacificus; conc 15): 0
rep 1 coiled (Pristionchus pacificus; conc 15): 0
rep 1 no phene (Pristionchus pacificus; conc 15): 20
rep 1 paralyzed (Pristionchus pacificus; conc 15): 0
rep 2 atypical locomotion (Pristionchus pacificus; conc 15): 0
rep 2 coiled (Pristionchus pacificus; conc 15): 0
rep 2 no phene (Pristionchus pacificus; conc 15): 20
rep 2 paralyzed (Pristionchus pacificus; conc 15): 0
rep 3 atypical locomotion (Pristionchus pacificus; conc 15): 0
rep 3 coiled (Pristionchus pacificus; conc 15): 0
rep 3 no phene (Pristionchus pacificus; conc 15): 20
rep 3 paralyzed (Pristionchus pacificus; conc 15): 0
mean % any phene (Pristionchus pacificus; conc 60): 92.5%
rep 1 atypical locomotion (Pristionchus pacificus; conc 60): 6 and 10
rep 1 coiled (Pristionchus pacificus; conc 60): 5 and 4
rep 1 no phene (Pristionchus pacificus; conc 60): 5 and 4
rep 1 paralyzed (Pristionchus pacificus; conc 60): 4 and 2
rep 2 atypical locomotion (Pristionchus pacificus; conc 60): 12 and 10
rep 2 coiled (Pristionchus pacificus; conc 60): 5 and 7
rep 2 no phene (Pristionchus pacificus; conc 60): 0
rep 2 paralyzed (Pristionchus pacificus; conc 60): 3
rep 3 atypical locomotion (Pristionchus pacificus; conc 60): 9 and 10
rep 3 coiled (Pristionchus pacificus; conc 60): 8 and 7
rep 3 no phene (Pristionchus pacificus; conc 60): 0
rep 3 paralyzed (Pristionchus pacificus; conc 60): 3
atypical locomotion (number of animals) (C. elegans; 3.75uM): 7 and 14 and 6 and 3 and 12 and 10
coiled (number of animals) (C. elegans; 3.75uM): 0
no phene (number of animals) (C. elegans; 3.75uM): 11 and 4 and 14 and 17 and 8 and 10
paralyzed (number of animals) (C. elegans; 3.75uM): 2 and 0
any phene: mean % fraction of young adults exhibiting any phenotype (coiled, jerky-Unc or paralyzed) (C. elegans; 3.75uM): 46.6667%
atypical locomotion (number of animals) (C. elegans; 15uM): 8 and 13 and 15 and 18 and 17
coiled (number of animals) (C. elegans; 15uM): 2 and 1 and 0
no phene (number of animals) (C. elegans; 15uM): 0 and 5 and 3
paralyzed (number of animals) (C. elegans; 15uM): 10 and 6 and 0 and 1
any phene: mean % fraction of young adults exhibiting any phenotype (coiled, jerky-Unc or paralyzed) (C. elegans; 15uM): 93.3333%
atypical locomotion (number of animals) (C. elegans; 60uM): 2 and 4 and 6 and 5 and 3
coiled (number of animals) (C. elegans; 60uM): 8 and 7 and 5 and 4 and 9
no phene (number of animals) (C. elegans; 60uM): 0
paralyzed (number of animals) (C. elegans; 60uM): 10 and 9 and 8 and 11
EC50 (C. elegans): 4 ± 1.1 µM
% effect (motility), DIROIM MF ([2]; 0.016 µM): 0%
% effect (motility), DIROIM MF ([2]; 0.08 µM): 0%
% effect (motility), DIROIM MF ([2]; 0.4 µM): 0%
% effect (motility), DIROIM MF ([2]; 2 µM): 0%
% effect (motility), DIROIM MF ([2]; 10 µM): 0%

FC(F)(F)c1cccc(N2CCN(C3CCCCCCC3)CC2)c1 [Nemacol-55]
% effect (motility), DIROIM L4 ([1]; 10 µM): 15%
% effect (motility), DIROIM L4 ([1]; 50 µM): 35%
mean % any phene (coiled, jerky-Unc or paralyzed) (Pristionchus pacificus; conc 3.75, observed at one hour): 5%
mean % any phene (coiled, jerky-Unc or paralyzed) (Pristionchus pacificus; conc 15, observed at one hour): 8.333%
mean % any phene (coiled, jerky-Unc or paralyzed) (Pristionchus pacificus; conc 60, observed at one hour): 59.1667%
EC50 (Pristionchus pacificus): 49.2 ± 6.2 µM
atypical locomotion (number of animals) (C. elegans; 3.75uM): 5 and 6 and 2 and 3 and 8
coiled (number of animals) (C. elegans; 3.75uM): 0
no phene (number of animals) (C. elegans; 3.75uM): 15 and 14 and 18 and 17 and 12
paralyzed (number of animals) (C. elegans; 3.75uM): 0
any phene: mean % fraction of young adults exhibiting any phenotype (coiled, jerky-Unc or paralyzed) (C. elegans; 3.75uM): 26.6667%
atypical locomotion (number of animals) (C. elegans; 15uM): 11 and 15 and 8 and 9 and 19 and 18
coiled (number of animals) (C. elegans; 15uM): 1 and 0 and 2
no phene (number of animals) (C. elegans; 15uM): 8 and 4 and 12 and 11 and 1 and 0
paralyzed (number of animals) (C. elegans; 15uM): 0 and 1
any phene: mean % fraction of young adults exhibiting any phenotype (coiled, jerky-Unc or paralyzed) (C. elegans; 15uM): 70%
atypical locomotion (number of animals) (C. elegans; 60uM): 18 and 17 and 16 and 11 and 15
coiled (number of animals) (C. elegans; 60uM): 0 and 2 and 5 and 4 and 3
no phene (number of animals) (C. elegans; 60uM): 0 and 2
paralyzed (number of animals) (C. elegans; 60uM): 2 and 1 and 0 and 4
any phene: mean % fraction of young adults exhibiting any phenotype (coiled, jerky-Unc or paralyzed) (C. elegans; 60uM): 96.6667%
EC50 (C. elegans): 7.9 ± 3.5 µM
% effect (motility), DIROIM MF ([2]; 0.016 µM): 0%
% effect (motility), DIROIM MF ([2]; 0.08 µM): 0%
% effect (motility), DIROIM MF ([2]; 0.4 µM): 0%
% effect (motility), DIROIM MF ([2]; 2 µM): 0%
% effect (motility), DIROIM MF ([2]; 10 µM): 0%
